Results published in patent publication US8367121B2, “Nutraceutical agent for attenuating the neurodegenerative process associated with Parkinson's disease” (Florida A & M University, priority 2005, dated 2013).
Like-named read-outs stand apart in the source and are kept apart here.

Experiments:
MPP+ toxicity = MPP+ toxicity in vitro (loss of ATP / cell death); type: cell-based; conditions: for protection against MPP+ toxicity: in vitro
[1] = Reduce/chelate and complex iron; conditions: as demonstrated in our lab
6-OHDA toxicity [2] = experiment: 6-OHDA toxicity in vitro; type: cell-based
[3] = Non-enzymatic DA oxidation to melanized pigments in buffered non-acid solution exposed to atmosphere; conditions: neutral pH; data not published
From the text: 2. DA AUTOXIDATION—The second major route for DA oxidation is non-enzymatic autoxidation in the presence of H2O2, ROS and metals (Fe^+2, Cu^+2, and Mn^+2) (Montgomery et al., Toxicology. 1995 Mar. 31; 97(1-3):3-9; Sayre et al., 1999 Bio-inorganic Chemistry 3:220-225). Autoxidation of DA can render formation of 6-OHDA (a potent neurotoxin) and O2.^−, of which the later if in proximity to nitric oxide (NO) can react to form ONOO—. Peroxynitrite can then re-oxidize DA, deplete available reduced glutathione/ascorbate, incur a substantial loss of endogenous GSH-peroxidase function and destroy the natural ability of GSH to act as an antioxidant, inactivate toxic DA o-semiquinones or ONOO—(Blum et al., 2001; Antunes et al., Toxicology. 2005 Mar. 15; 208(2):207-12). Likewise, the neurological damage associated with PD corresponds to depletion of SNc GSH as consistently evidenced in various studies (Ebadi et al, Prog Neurobiol. 1996 January; 48(1):1-19) and a reduction of GSH (ie. γ-glutamylcysteine. synthetase inhibitor) renders SNc neurons extremely vulnerable to the toxic effects of MPTP and 6-OHDA (Bharath et al., Biochem Pharmacol. 2002 September; 64(5-6):1037-48). In contrast, administration of thiol antioxidants such as dithioreitol, GSH and NAC (which block the autoxidation of DA), prevent MPTP induced toxicity in mice (Annepu and Ravindranath, Neurosci Lett. 2000 Aug. 11; 289(3):209-12; Bahat-Stroomza et al., Eur J Neurosci. 2005 February; 21(3):637-46). For these reasons, the formulation will include substances that prevent non-enzymatic DA oxidation herein classified under “DA-AUTOXIDATION (−)”. The compounds chosen were based on their propensity to block DA oxidation to melanized pigments in buffered non-acid solution exposed to atmosphere and corresponding production of ROS upon exposure of O2 (data not published). Of approximately 100 food based compounds tested in our lab, the findings indicate a block of DA oxidation at neutral pH by PY, β-CAROTENE (*), NAC (*), GSH (*), VITAMIN C (*). […] The addition of ascorbic acid as a DA-AUTOXIDATION (−) should be limited given its negative counter-indication with iron and 6-OHDA (Mendez-Alvarez et al., Free Radic Biol Med. 2001 Oct. 15; 31(8):986-98). In contrast, ample concentration of thiol substances should be added to the formulation as they are non-toxic, attenuate pathological effects of 6-OHDA, ONOO— and block the formation of DA o-semiquinone neurotoxic radicals (Asanuma et al., Acta Med. Okayama 2004: 58 (5) 221-233).

LDH = experiment: Substrate for lactic acid dehydrogenase; type: biochemical
From the text: (§1) With that, overcoming the initial deficit imposed by PD toxins such as MPP+ are possible with non-glucose intermediates that are capable of sustaining ATP production through substrate level phosphorylation. These compounds should protect against cell death by MPP+, herein also classified under “ANAEROBIC (+)”. […] Agents capable of mediating positive effects on PK/LDH should in theory offset the metabolic vulnerability imposed by the rise in lactate/pyruvate, nicotinamide adenine dinucleotide (NAD)/nicotinamide adenine dinucleotide reduced (NADH) and NADP/NADPH ratios that occur during hypoglycemia and neurological damage (Auer RN. Metab Brain Dis. 2004 December; 19(3-4):169-75). For this reason, the first component and the base of this nutraceutical formulation are one or more of PYRUVIC ACID (*) (PY), […] ACID (SA)* and OXALOACETATE (*) (OA) as well as their corresponding molecular derivatives, analogues, esters or salts. […] On the other hand, PY can readily enter the brain, serve as a useful substrate for glycolysis, the Krebs cycle and the GABA shunt (Gonzalez et al., J Neurochem. 2005 October; 95(1):284-93) with capability to protect ergogenic failure associated with ischemic stroke and heart disease (Lee et al., J Neurosci. 2001 Oct. 15; 21(20):RC171; Hermann et al., Eur J Heart Fail. 2004 Mar. 1; 6(2):213-8).

H2O2 toxicity = H2O2 toxicity in vitro; type: cell-based
From the text: as §1

complex II = experiment: Mitochondrial complex II function; type: biochemical
[4] = system: mitochondrial respiration; experiment: Mitochondrial O2 consumption / respiration; type: biochemical
complex IV = experiment: Mitochondrial complex IV function; type: biochemical
complex I = experiment: Mitochondrial complex I function
6-OHDA toxicity [5] = conditions: Kabuto et al., Neurochem Res. 2005; cited from earlier work
[6] = Non-enzymatic H2O2 scavenging

In the case of `CC(=O)O[C@H](CC(=O)[O-])C[N+](C)(C)C` [ACETYL-L-CARNITINE], the “protection against MPP+ toxicity” value (MPP+ toxicity) was “effective”.
In the case of `O=C(O[C@@H]1Cc2c(O)cc(O)cc2O[C@@H]1c1cc(O)c(O)c(O)c1)c1cc(O)c(O)c(O)c1` [EGCG, (−)-Epigallocatechin-3-gallate], the “protection against MPP+ toxicity” value (MPP+ toxicity) was “effective”.
For `COc1cc(/C=C/C(=O)O)ccc1O` [FERULIC ACID], the “reduce/chelate and complex iron” value [1] was “most powerful”.
For `O=C(COP(=O)(O)O)[C@@H](O)[C@H](O)[C@H](O)COP(=O)(O)O` [FRUCTOSE 1,6 BISPHOSPHATE], the “protection against MPP+ toxicity” value (MPP+ toxicity) was “effective”.
For `O=C(CO)[C@@H](O)[C@H](O)[C@H](O)CO` [FRUCTOSE], the “protection against MPP+ toxicity” value (MPP+ toxicity) was “effective”.
For `N[C@@H](CCC(=O)N[C@@H](CS)C(=O)NCC(=O)O)C(=O)O` [GSH, reduced glutathione], the “protection against / antagonism of 6-OHDA toxicity” value (shortened to “protection against / antagonism”) (6-OHDA toxicity [2]) was “directly antagonize” and the “block of DA oxidation” value [3] was “block”.
In the case of `O=c1c(O)c(-c2ccc(O)cc2O)oc2cc(O)cc(O)c12` [MORIN], the “reduce/chelate and complex iron” value [1] was “most powerful”.
For `CC(=O)N[C@@H](CS)C(=O)O` [NAC, N-acetyl-L-cysteine], the “protection against / antagonism” value (6-OHDA toxicity [2]) was “directly antagonize” and the “block of DA oxidation” value [3] was “block”.
With `NC(=O)C1=CN([C@@H]2O[C@H](COP(=O)(O)OP(=O)(O)OC[C@H]3O[C@@H](n4cnc5c(N)ncnc54)[C@H](O)[C@@H]3O)[C@@H](O)[C@H]2O)C=CC1` [NADH, reduced nicotinamide adenine dinucleotide] the “protection against MPP+ toxicity” value (MPP+ toxicity) was “protect”.
In the case of `C=C(OP(=O)(O)O)C(=O)O` [PHOSPHOENOLPYRUVATE], the “protection against MPP+ toxicity” value (MPP+ toxicity) was “effective”.
With `CN1C(C(=O)Nc2ccccn2)=C(O)c2ccccc2S1(=O)=O` [PIROXICAM, reference compound] the “protection against MPP+ toxicity” value (MPP+ toxicity) was “effective”.
With `CC(=O)C(=O)O` [PY, PYRUVIC ACID] the “protection against / antagonism” value (6-OHDA toxicity [2]) was “protect”, the “protection against / antagonism” value (6-OHDA toxicity [2]; listed as pyruvate) was “directly antagonize” and the “substrates for LDH” value (LDH) was “exceptional substrates for LDH”. For the same molecule, the “protection against MPP+ toxicity” value (MPP+ toxicity) was “protect”, the “protection against H2O2 toxicity” value (H2O2 toxicity) was “protect” and the “block of DA oxidation” value [3] was “block”.
With `Oc1ccc(C=Cc2cc(O)cc(O)c2)cc1` [RESVERATROL] the “protection against MPP+ toxicity” value (MPP+ toxicity) was “effective”.
With `O=C(O)CCC(=O)O` [SA, SUCCINIC ACID] the “fuel anaerobic glycolysis in the presence of MPP+” value (MPP+ toxicity; data not published) was “great propensity”.
In the case of `Oc1ccc2c(c1)OCO2` [SESAMOL], the “reduce/chelate and complex iron” value [1] was “most powerful”.
With `CC1=CC(=O)C(C(C)C)=CC1=O` [THYMOQUINONE] the “protection against MPP+ toxicity” value (MPP+ toxicity) was “effective”.
With `N[C@@H](Cc1c[nH]c2ccccc12)C(=O)O` [TRYPTOPHAN] the “protection against MPP+ toxicity” value (MPP+ toxicity) was “effective”.
For `O=C1O[C@H]([C@@H](O)CO)C(O)=C1O` [VITAMIN C, ascorbic acid], the “block of DA oxidation” value [3] was “block”.
With `O=C(O)/C=C/c1ccc(O)c(O)c1` [caffeic acid] the “reduce/chelate and complex iron” value [1] was “most powerful”.
With `COC1=C(OC)C(=O)C(C/C=C(\C)CC/C=C(\C)CC/C=C(\C)CC/C=C(\C)CC/C=C(\C)CC/C=C(\C)CC/C=C(\C)CC/C=C(\C)CC/C=C(\C)CCC=C(C)C)=C(C)C1=O` [coenzyme Q10] the “potentiation of complex II function” value (complex II) was “mild potentiator”, the “effects on mitochondrial O2 consumption / mitochondrial respiration as a whole” value [4] was “no effects” and the “effects on complex IV function” value (complex IV) was “little to no effects”. For the same molecule, the “protection against MPP+ toxicity” value (MPP+ toxicity) was “no effects” and the “effects on complex I function” value (complex I) was “little to no effects”.
In the case of `O=c1oc2c(O)c(O)cc3c(=O)oc4c(O)c(O)cc1c4c23` [ellagic acid], the “reduce/chelate and complex iron” value [1] was “most powerful”.
For `N[C@@H](Cc1c[nH]cn1)C(=O)O` [histidine], the “protection against / antagonism” value (6-OHDA toxicity [2]) was “mild protection”.
With `O=c1c(O)c(-c2ccc(O)c(O)c2)oc2cc(O)cc(O)c12` [quercetin] the “reduce/chelate and complex iron” value [1] was “most powerful”.
In the case of `Cc1cc2nc3c(=O)[nH]c(=O)nc-3n(C[C@H](O)[C@H](O)[C@H](O)CO)c2cc1C` [riboflavin, RIBOFLAVIN], the “protection against MPP+ toxicity” value (MPP+ toxicity) was “exacerbating”.
In the case of `COc1cc(CCC(C)=O)ccc1O` [zingerone], the “antagonism of 6-OHDA toxicity” value (6-OHDA toxicity [5]) is given as “directly antagonize”.
With `CC1=C(/C=C/C(C)=C/C=C/C(C)=C/C=C/C=C(C)/C=C/C=C(C)/C=C/C2=C(C)CCCC2(C)C)C(C)(C)CCC1` [β-CAROTENE] the “scavenge H2O2” value [6] was “scavenge” and the “block of DA oxidation” value [3] was “block”.
In the case of “CYTOCHROME C: cytochrome C, combined with an H2O2 antioxidant to detoxify 6-OHDA”, the “protection against / antagonism” value (6-OHDA toxicity [2]) was “directly antagonize”.
In the case of NARINGEN, the “protection against MPP+ toxicity” value (MPP+ toxicity) was “effective”.
For Vitamin E, the “scavenge H2O2” value [6] was “lack of effects” and the “block of DA oxidation” value [3] was “lack of effects”.
